Reference: US20090155236A1, “Peptide sequence for modulation of delta protein kinase c” (NATIONAL INSTITUES OF HEALTH (NIH), U.S. DEPT OF HEALTH AND …, priority 2004, published 2009)
Positions of bridges follow the written chain, without caps; N, C: chain ends. No end group written: not given here.

Assays:
[1] = biological target: T1, annexin V and delta PKC interaction (Homo sapiens, UniProt Q05655); assay: Cross-linking immuno-precipitation of delta PKC probed with anti-annexin V in cardiac myocytes; format: cell-based; conditions: cardiac myocytes stimulated with the agent, FIG. 5
T1 construct: endogenous in cells; host or cells: cardiomyocytes
Method: Example 4 describes a study where cardiac myocytes were stimulated with a selected agent and then immuno-precipitated with anti-delta PKC after cross-linking. The cell lysates were then probed with anti-annexin V and visualized with ECL Western blotting. […] The stimulation agent was applied to the cells for times of between 30 seconds to 20 minutes, prior to lysing.
Cardiomyocytes were treated with phorbol 12-myristate 13-acetate (PMA; 10 nM), hydrogen peroxide (H2O2; 5 mM), JTV-519, or delta V1-1 peptide (1 μM) and JTV-519 (1 μM), for times of between 30 seconds to 5 minutes. After the lapsed time, the cells were washed with cold PBS, and homogenized on ice with trituration in homogenization buffer (20 mM Tris pH 7.4, 2 mM EDTA, 10 mM EGTA, 0.25M sucrose, 12 mM O-mercaptoethanol, and protease inhibitor cocktail (Sigma), 0.1% formaldehyde. After 30 min at 4° C., the lysates were quenched with 0.14M glycine for 20 min at 4° C., and samples spun at 14K rpm at 4° C. The supernatant was incubated with 1 μg anti-delta PKC antibody (Santa Cruz Biotechnology, Inc., Santa Cruz, Calif.) for 1 hour, then with proteinG beads (Invitrogen Corporation) for 3 hours at 4° C. The beads where then washed with wash buffer (20 mM Tris pH 7.5, 2 mM EDTA, 100 mM NaCl, 12 mM β-mercaptoethanol, 0.1% Triton), and separated on 7.5% SDS-PAGE, transferred to nitrocellulose, and probed with anti-annexin V (Santa Cruz Biotechnology, Inc., Santa Cruz, Calif.), followed by visualization by ECL Western blotting.

[2] = biological target: T2, delta PKC/annexin V interaction (Cricetulus griseus, UniProt A0A8C2N0P5); assay: Cross-linking co-immunoprecipitation of annexin V and delta PKC in CHO cells; format: cell-based
T2 construct: endogenous in cells; host or cells: CHO cells
Method: A similar study was conducted to further evaluate the in vitro, intracellular interactions of delta PKC and annexin V. Cellular interactions of delta PKC/annexin V interaction in CHO cells were stabilized with a cross-linking agent, after stimulation with 10 nM PMA. The complexes formed with delta PKC were then immuno-precipitated and tested for the presence of annexin V. The SDS-PAGE gel is shown in FIG. 6A and a corresponding graph quantifying percent association of annexin V and delta PKC as a function of time is shown in FIG. 6B. […] The interaction is relatively short-lived, and the proteins disassociated after 1 minute of stimulation.
The effect of JTV-519, an activator of delta PKC, on the association of annexin V and delta PKC was also evaluated in this study. Cells were treated with JTV-519, and the association of annexin V and delta PKC was examined using the co-immunoprecipitation procedure described above. […] PMA caused the disassociation of the JTV-induced complex at 30 seconds, the time of maximal PMA-induced association. […] Whereas the cytosolic fraction of the cells contained a steady low level of the complex, the majority of the complex was found in the particulate fraction of the cells, and disappearance from the particulate fraction followed the same time-course as observed in whole cell lysates (compare FIG. 6D bottom panel with FIG. 6B).

[3] = biological target: T3, delta PKC (Homo sapiens, UniProt Q05655); assay: In vitro kinase assay, histone phosphorylation by delta PKC; format: biochemical
T3 construct: purchased Panvera LLC, now Invitrogen Corporation
Method: In another study, the ability of annexin V to increase the catalytic activity of delta PKC in vitro was evaluated. Full-length, recombinant delta PKC (SEQ ID NO:3) and epsilon PKC (SEQ ID NO:6) were separately incubated in the presence of kinase buffer, ATP, or histone, as described in Example 3. Activators of PKC, phosphatidylserine (PS) and diacylglycerol (DAG), were added along with annexin V, JTV-519, a 1,4 benzothiazepine derivative that activates delta PKC (Inagaki, K. et al., Circulation, 101:797 (2000)), or a mixture of annexin V and JTV-519.
200 ng of pure delta PKC or epsilon PKC (Panvera LLC, now Invitrogen Corporation, Carlsbad, Calif.) were incubated in 100 μL kinase buffer (20 mM Tris pH 7.4, 50 mM MgCl2, 0.3 μCi/reaction [γ-^32P]ATP (Amersham Biosciences), 9 μM/reaction ATP (Sigma), 30 μg/reaction myelin basic protein or histone A1 (Sigma); 100 μM lipid vesicle mixture (90% phosphatidylserine (PS): 10% diacylglycerol (DAG)), 1 mM CaCl2, 1 μM JTV519, and/or 20 ng of Annexin V/reaction were added, where applicable. The kinase reaction was stopped by the addition of SDS sample buffer, and extent of histone phosphorylation assessed after separation on 15% SDS-PAGE and transfer onto nitrocellulose membrane by autoradiography.

[4] = biological target: T4, delta PKC (Cricetulus griseus, UniProt A0A8C2N0P5); assay: Translocation of delta PKC to the membrane fraction of CHO cells upon PMA stimulation; format: cell-based; conditions: CHO cells pretreated 1 μM for 15 minutes, PMA 10 nM for 5 minutes, FIGS. 8A-8B
T4 construct: endogenous in cells; host or cells: CHO cells
Method: The ability of the annexin V peptide to block the intracellular interaction of delta PKC and annexin V was illustrated in the following study. The annexin V peptide (SEQ ID NO: 1) was conjugated to a TAT47-57 carrier peptide (SEQ ID NO:26) through an N-terminal Cys-Cys bond, as previously described (Chen, L. et al., Proc. Natl. Acad. Sci. USA, 98:11114-9 ((2001)). This peptide, identified herein as SEQ ID NO:29 and referred to as TAT-AnxV peptide, was used to pretreat (1 μM for 15 minutes) CHO cells prior to stimulation with PMA (10 nM for 5 minutes). For comparison, the annexin V peptide sequence was modified at the Arg (R) residue with a Glu (E) residue, to form a peptide having the sequence LQANEDPD, identified herein as SEQ ID NO:30. Substitution of E for R confers a charge difference between annexin V and delta PKC. This peptide was also attached to a TAT carrier peptide via N-terminal modification with a Cys-Cys bond. The conjugate is referred to herein as TAT-AnxV(R→E) (SEQ ID NO:31) and is denoted in some figures as “EpAnxV.” Cells were similarly pretreated with TAT-AnxV(R→E), prior to stimulation with PMA. As controls, some cells were left untreated and other cells were exposed only to PMA. […]

[5] = tested on: isolated rat hearts; assay: Ex vivo ischemia/reperfusion in isolated rat hearts; conditions: for infarct size: treated 10 minutes prior to 30 minutes ischemia, 60 minutes reperfusion, FIG. 9A
Method: The physiologic impact of disruption of the delta PKC-annexin V complex was evaluated in an ex vivo ischemia/reperfusion study using the annexin V peptide, TAT-AnxV, and its mutant, TAT-AnxV(R→E). As described in Example 7, isolated rat hearts were treated with TAT-AnxV or TAT-AnxV(R→E) for 10 minutes prior to induction of an ischemic episode. The ischemic episode lasted for 30 minutes, at which time flow to the heart was returned for 60 minutes (reperfusion). After the reperfusion period, cardiac effluent was collected and analyzed for creatine phosphokinase (CPK). The hearts were stained and visually inspected for live and dead tissue. Infarct size was measured by taking the average of the dead (white) tissue on both sides of the tissue slice.
A similar study was conducted, except rather than pretreating the isolated hearts with the annexin V peptide, the peptide was administered after the ischemic event and during the initial 10 minutes of the reperfusion period. Hearts were similarly treated with the mutant peptide, TAT-AnxV(R→E).
Rats were anesthetized and their hearts were rapidly removed and cannulated via the aorta for retrograde perfusion (Colbert, M. et al., J. Clin. Invest., 100:1958 (1997)). The hearts were left untreated, or were pretreated with the annexin V peptide, conjugated to TAT, (TAT-AnxV, SEQ ID NO:29) or with its mutant, TAT-AnxV(R→E) (SEQ ID NO:31), for 10 minutes prior to a 30 minutes of ischemia. Ischemia was induced by interrupting flow for 30 minutes and then reestablishing flow for 60 minutes (reperfusion). Cardiac effluent was collected for 15 minutes after reperfusion and assayed for creatine phosphokinase (CPK) using a Sigma kit. Hearts were stained with 2,3,5-triphenyltetrazolium chloride ([…]) to visualize live tissue (red) and dead tissue (white), and infarct size was measured by taking the average of the white area on both sides of the tissue slice (n=3, p<0.05). Results are shown in FIGS. 9A-9B and FIGS. 10A-10B.

T3 sequence (Q05655 whole entry): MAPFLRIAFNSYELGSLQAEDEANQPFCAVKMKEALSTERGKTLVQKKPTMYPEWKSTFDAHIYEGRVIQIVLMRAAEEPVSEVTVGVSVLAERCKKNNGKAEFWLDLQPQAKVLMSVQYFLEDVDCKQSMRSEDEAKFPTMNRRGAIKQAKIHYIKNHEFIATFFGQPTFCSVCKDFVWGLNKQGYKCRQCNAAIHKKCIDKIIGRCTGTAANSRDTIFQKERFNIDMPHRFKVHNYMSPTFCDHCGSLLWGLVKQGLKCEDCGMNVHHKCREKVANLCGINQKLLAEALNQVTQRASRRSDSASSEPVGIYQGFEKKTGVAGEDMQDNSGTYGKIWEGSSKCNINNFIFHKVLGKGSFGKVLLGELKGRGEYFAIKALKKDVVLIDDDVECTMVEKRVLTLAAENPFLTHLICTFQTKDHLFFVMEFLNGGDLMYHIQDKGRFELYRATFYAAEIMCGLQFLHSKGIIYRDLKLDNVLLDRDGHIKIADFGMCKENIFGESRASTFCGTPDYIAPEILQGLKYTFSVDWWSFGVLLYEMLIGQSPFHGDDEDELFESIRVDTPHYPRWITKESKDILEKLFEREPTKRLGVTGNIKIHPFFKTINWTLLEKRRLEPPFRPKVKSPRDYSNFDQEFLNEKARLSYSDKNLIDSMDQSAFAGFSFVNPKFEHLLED
T2 sequence (A0A8C2N0P5 1-676): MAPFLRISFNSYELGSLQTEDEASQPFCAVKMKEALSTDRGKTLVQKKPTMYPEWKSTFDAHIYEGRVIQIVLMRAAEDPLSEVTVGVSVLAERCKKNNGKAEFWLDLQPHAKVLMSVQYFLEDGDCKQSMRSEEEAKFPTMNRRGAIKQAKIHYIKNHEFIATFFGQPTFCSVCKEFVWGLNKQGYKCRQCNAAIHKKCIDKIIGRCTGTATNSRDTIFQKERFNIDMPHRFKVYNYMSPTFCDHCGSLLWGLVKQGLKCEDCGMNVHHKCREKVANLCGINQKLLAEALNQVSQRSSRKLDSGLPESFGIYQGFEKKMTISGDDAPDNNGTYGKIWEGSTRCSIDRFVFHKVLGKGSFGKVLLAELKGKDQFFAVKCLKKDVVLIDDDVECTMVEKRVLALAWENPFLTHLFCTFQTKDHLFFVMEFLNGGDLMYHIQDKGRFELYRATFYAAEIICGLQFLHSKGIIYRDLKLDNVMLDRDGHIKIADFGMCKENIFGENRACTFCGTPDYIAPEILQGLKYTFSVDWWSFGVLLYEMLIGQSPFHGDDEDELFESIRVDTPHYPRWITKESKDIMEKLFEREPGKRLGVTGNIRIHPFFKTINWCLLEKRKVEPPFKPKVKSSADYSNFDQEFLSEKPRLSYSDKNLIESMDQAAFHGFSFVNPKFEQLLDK
T2 sequence (G3I5A4 1-321 partner): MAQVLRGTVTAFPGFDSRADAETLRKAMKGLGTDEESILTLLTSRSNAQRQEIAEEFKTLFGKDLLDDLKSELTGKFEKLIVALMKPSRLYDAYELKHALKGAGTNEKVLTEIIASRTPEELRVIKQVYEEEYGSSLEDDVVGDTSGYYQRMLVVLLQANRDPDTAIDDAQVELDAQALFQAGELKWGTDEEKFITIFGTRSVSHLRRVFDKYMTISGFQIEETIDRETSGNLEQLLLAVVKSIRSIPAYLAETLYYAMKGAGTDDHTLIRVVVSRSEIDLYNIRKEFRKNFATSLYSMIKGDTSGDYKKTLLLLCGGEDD
T4 sequence (A0A8C2N0P5 1-676): as the sequence (A0A8C2N0P5 1-676) above
T1 sequence (Q05655 whole entry): as the sequence (Q05655 whole entry) above

Compound	interaction of annexin V and delta PKC [1]	association of annexin V and delta PKC ([2]; basal conditions, FIGS. 6A-B)	cellular localization of the delta PKC-annexin V complex ([2]; soluble versus particulate fraction, FIG. 6D)	catalytic activity of delta PKC (histone phosphorylation) ([3]; in the presence of PS/DAG, FIG. 4A)	catalytic activity of delta PKC (histone phosphorylation) ([3]; in the presence of annexin V and PS/DAG, FIG. 4A Lane 5)	translocation of delta PKC to the cell membrane [4]	infarct size [5]	creatine phosphokinase (CPK) released ([5]; treated 10 minutes prior to ischemia, FIG. 9B)
COc1ccc2c(c1)CN(C(=O)CCN1CCC(Cc3ccccc3)CC1)CCS2 [JTV-519]	greatly enhanced	full association	most of the δPKC-annexin V complex remained in the soluble fraction	about the same extent as observed for delta PKC in the presence of PS/DAG alone	blocked the increased catalytic activity observed with annexin V	–	–	–
TAT-AnxV(R→E): conjugate of SEQ ID NO:30 joined to a TAT carrier peptide through an N-terminal cysteine-cysteine bond (YGRKKRRQRRRCCLQANEDPD; disulfide 12-13 (inferred))	–	–	–	–	–	lost its inhibitory effect on delta PKC translocation	did not inhibit the delta PKC-induced damage	–
TAT-AnxV: conjugate of SEQ ID NO:1 joined to a TAT carrier peptide through an N-terminal cysteine-cysteine bond (YGRKKRRQRRRCCLQANRDPD; disulfide 12-13 (inferred))	–	–	–	–	–	blocked the translocation of delta PKC	statistically significant decrease in infarct size	reduced level of creatine phosphokinase
